Measurements published in US10011874B2, “Androgen receptor mutation” (NOVARTIS AG, priority 2013, dated 2018).

Experiments:
[1] = tested on: AR pathway activity in control and weakly resistant lines; assay: Microarray clustering and GSEA of AR pathway activity, control and weakly resistant lines; type: cell-based; conditions: 10 μM, 24 h
Procedure: (§1) Total RNA was isolated from cells using the Qiagen RNeasy Kit. RNA integrity and purity were assessed with the RNA 6000 Nano LabChip system on a Bioanalyzer 2100 (Agilent Technologies). Generation of labeled cDNA and hybridization to Affymetrix GeneChip Human Genome U133 Plus 2.0 Array (Affymetrix Inc.) was performed using standard protocols as previously described (8). Probesets from the Affymetrix gene expression datasets were normalized using MASS with a trimmed-mean target of 150, and log 2-transformed. Probesets were then filtered for inclusion only if their maximum value over different samples was at least 5. […] This regression was used to generate nominal p-values and regression coeffecients (i.e. fold-changes).

[2] = tested on: LNCaP cells; assay: Culture of LNCaP cells with MDV3100; type: cell-based; conditions: short-term culture (<1.5 months); FCS+MDV relative to FCS
Procedure: 2 million LNCaP cells were seeded into four 150 cm^2 tissue culture dishes in phenol red-free RPMI 1640 media supplemented with 10% FCS. […] Cells were re-seeded into 150 cm^2 dishes supplemented with the appropriate treatments once each week. Media and compound was replaced for dish 4 once every week. Once resistant clones emerged, media was aspirated from dish 4. […] Cells from control dishes 1-3 were maintained until resistant clones were cryopreserved to maintain a constant culture time for control and experimental lines.

[3] = tested on: LNCaP control (C1) tumors; assay: In vivo tumorigenesis assay, control C1 xenografts; set-up: species or system castrated male nu/nu mice
Procedure: 10 million LNCaP cells (C1, clone #1) mixed 1:1 with matrigel were injected subcutaneously into the flank of castrated 7-8 week male nu/nu mice. […]. Tumors were measured using calipers and tumor volumes were calculated using length×width/2. Data is expressed as mean±SEM. All animal experiments were performed in compliance with the guidelines of Novartis Biomedical Research Animal Care and Use Committee protocols and regulations.

[4] = tested on: AR localization in strongly resistant clone #1; assay: Nuclear/cytoplasmic fractionation of AR, strongly resistant clone #1; type: cell-based; conditions: 10 μM, 24 h
Procedure: (§7) The next day, cells were harvested with trypsin, centrifuged at 500×g for 5 min, washed with PBS, transferred to 1.5 ml microcentrifuge tubes and pelleted by centrifugation at 500×g for 2-3 min. […] Briefly, the pellet was resuspended in 500 μl of ice-cold Cer I buffer and incubated on ice for 10 min. Following incubation, 27.5 μl of ice-cold Cer II buffer was added, vortexed and incubated for 1 min on ice. The lysate/Cer I/II mixture was vortexed again, centrifuged at 14000×g for 5 min and the cytoplasmic extract (supernatant) was transferred to pre-chilled tubes. The insoluble pellet, which contains nuclei, was resuspended in ice-cold 250 μl NER buffer, vortexed and placed on ice. Sample was vortexed for 15 s every 10 min for a total of 40 min. Following incubation, samples were centrifuged at 14000×g for 10 min. Supernatant, which contains the nuclear extract, was transferred to pre-chilled tubes. These samples were processed for immunoblot analysis as described above.

[5] = tested on: CYP2C19; conditions: in humans; cited from earlier work
[6] = tested on: AR localization in control (C1) LNCaP line; assay: Nuclear/cytoplasmic fractionation of AR, control line C1; type: cell-based; conditions: 10 μM, 24 h
Procedure: as §7

[7] = tested on: CYP2C9; conditions: in humans; cited from earlier work
[8] = tested on: AR target genes KLK3, NKX3-1 and SLC45A3 in strongly resistant clones; assay: qPCR of AR target genes in strongly resistant clones; type: cell-based; conditions: 24 h
Procedure: (§2) For spontaneous clones: 200 k cells were seeded in 6 well plates in RPMI 1640 supplemented with 10% FCS for 2 d prior to treatment with various compounds for 24 h. Alternatively, for experiments involving androgen-depletion, 200 k cells were seeded and grown in 6 well plates in phenol-free RPMI 1640 supplemented with 10% FCS for 2 d. […] Similar protocols were applied for genetically engineered lines except that cells were pretreated with Dox for at least 2 d prior to treatment with various compounds to allow sufficient transgene expression. Total RNA was extracted using the RNeasy plus mini kit (Qiagen, cat#74136) according to the manufacturer's instructions. 1-2 μg of total RNA was used for cDNA synthesis using a high capacity cDNA reverse transcription kit (Applied Biosystems, cat#4368813). cDNA from each sample was diluted 15-20 fold and real-time was performed in triplicates using gene-specific primers and FastStart Universal Probe Master Mix (Rox) (Roche Applied Science) on an ABI 7900HT series PCR machine. Expression levels were normalized to TBP expression. All analysis was performed using the SDS2.3 software. The following gene-specific primers (Invitrogen) were used: AR (Hs00171172_m1), KLK3 (Hs02576345_m1), NKX3-1 (Hs00171834_m1), TMPRSS2 (Hs01120965_m1), SLC45A3 (Hs00263832_m1), TBP (Hs00427620_m1), DHFR (Hs00758822_s1) and TK1 (Hs01062125_m1).

[9] = tested on: E2F1 target genes DHFR and TK1 in control line; assay: qPCR of E2F1 target genes in control line; type: cell-based; conditions: 10 μM, 24 h
Procedure: as §2

[10] = randomized clinical trial; cited from earlier work
[11] = tested on: AR pathway activity in strongly resistant clones; assay: Microarray clustering and GSEA of AR pathway activity, strongly resistant clones; type: cell-based; conditions: 10 μM, 24 h
Procedure: as §1

[12] = tested on: CYP3A4; conditions: in humans; cited from earlier work
[13] = tested on: strongly resistant LNCaP clones #1, 15, 19, 24 (AR F877L/T878A); assay: Short-term CellTiter-Glo growth assay, strongly resistant LNCaP clones; type: cell-based; conditions: for growth sensitivity compared with bicalutamide: strongly resistant clones, FIG. 6B
Procedure: (§3) Cells were re-seeded into 150 cm^2 dishes supplemented with the appropriate treatments once each week. Media and compound was replaced for dish 4 once every week. Once resistant clones emerged, media was aspirated from dish 4. […] Cells from control dishes 1-3 were maintained until resistant clones were cryopreserved to maintain a constant culture time for control and experimental lines.
(§4) 1000 cells (spontaneous resistant or engineered lines) were seeded in media supplemented with 10% FCS. For spontaneous resistant clones, increasing concentrations of compounds were added on the day of seeding whereas for engineered lines, compounds were added after 2 d of doxycycline treatment. In all cases growth assays were performed using CellTiter-Glo Luminescent Cell Viability Assay Reagent (Promega, cat# G7573) 7 d following compound treatment.

[14] = tested on: LNCaP lines engineered to express AR-F877L/T878A; assay: Long-term colony formation assay, LNCaP expressing AR-F877L/T878A; type: cell-based; conditions: for growth sensitivity compared with bicalutamide: AR-F877L/T878A LNCaP lines, FIG. 6C colony formation
Procedure: (§5) Codon-optimized cDNAs encoding WT or mutant ARs were synthesized (DNA2.0) and subcloned into the pLKO-TREX-HA-Neo (Invitrogen). […] Virus was harvested 2-3 d after transfection, filtered, and used to infect LNCaP, MyC-CaP and VCaP cell cultures in the presence of 8 μg ml-1 polybrene. Infected cells were maintained in neomycin for 3 weeks. In all cases, at least 1000 independent clones were pooled to generate stable cell lines to avoid clonal variations. Stable cell lines infected with control vectors were generated in parallel for use as experimental controls.
(§6) 5000-7500 cells (spontaneous resistant or engineered lines) were seeded in 6-well plates in media supplemented with 10% FCS. […] Viable colonies were stained after 3-4 week cultures. Following media aspiration, 0.5% crystal violet was added to the wells and left overnight. The next morning, crystal violet solution was removed and wells were carefully washed with ddH2O to remove residual staining solution. The plates were air-dried overnight prior to imaging.

[15] = tested on: W742L and W742C mutant ARs; assay: AR luciferase reporter transactivation assay, W742 mutants; type: cell-based, human; conditions: 10 μM, FIG. 12
Procedure: Reporter assays were performed as follows: 3×10^5 HEK293T cells were seeded in 6-well plates in DMEM supplemented with 10% FCS and 1×NEAA 24 h prior to transfection. Alternatively, 1×10^6 VCaP cells or 3×10^5 PC3 cells were seeded in 6-well plates in appropriate media supplemented with 10% CSS 24 h prior to transfection. […] Cells were collected ˜16 h following treatment and assayed for luciferase activity using the Glomax 96 microplate luminometer (Promega). Firefly activity was normalized to Renilla using the Dual Luciferase Assay reagent (Promega, E1910). All experiments were performed at least three times.

[16] = tested on: LNCaP cells, controls (C1-C3); assay: cells; conditions: Homo sapiens, read-out: aggregate IC50, growth inhibition
Procedure: as §3, §4

[17] = tested on: weakly resistant LNCaP clones #9, 10 and 14; assay: Short-term CellTiter-Glo growth assay, weakly resistant LNCaP clones; type: cell-based; conditions: Homo sapiens, read-out: aggregate IC50, growth inhibition
Procedure: as §3, §4

[18] = tested on: LNCaP lines engineered to express W742C/T878A AR
Procedure: as §5, §6

[19] = tested on: W742C/T878A mutant AR (KLK3 expression); type: cell-based
Procedure: as §5

[20] = tested on: T878A-bearing mutant alleles of AR (KLK3 expression); assay: qPCR of KLK3 in LNCaP engineered to express T878A-bearing mutant ARs; type: cell-based; conditions: 10 μM; 10% FCS; FIG. 15
Procedure: […]. […] Infected cells were maintained in neomycin for 3 weeks.
as §2, with “The following gene-specific primers (Invitrogen) were used: AR (Hs00171172_m1), KLK3 (Hs02576345_m1), NKX3-1 (Hs00171834_m1), TMPRSS2 (Hs01120965_m1), SLC45A3 (Hs00263832_m1), TBP (Hs00427620_m1), DHFR (Hs00758822_s1) and TK1 (Hs01062125_m1).” left out

Q: For `CNC(=O)c1ccc(N2C(=S)N(c3ccc(C#N)c(C(F)(F)F)c3)C(=O)C2(C)C)cc1F` [MDV3100, 4-{3-[4-cyano-3-(trifluoromethyl)phenyl]-5,5-dimethyl-4-oxo-2-sulfanylideneimidazolidin-1-yl}-2-fluoro-N-methylbenzamide], which “AR pathway activity upon treatment” value [1] is on record?
A: The value was “reduced AR pathway activity”.

Q: What about the “effect of short-term culture on cell population” value [2] of the same compound?
A: Its value is “population-wide stasis”.

Q: What about the “body weight during treatment period” value ([3]; control 1 xenograft mice, 30 mg/kg daily) of the same compound?
A: Its value is “No significant body weight loss”.

Q: What about the “tumor growth under treatment” value ([3]; control C1 tumors, 30 mg/kg daily) of the same compound?
A: Its value is “immediate stasis”.

Q: And the “tumor take rates, treated vs. vehicle” value ([3]; control cells C1, 9 of 15 vs. 10 of 15)?
A: The value was “indistinguishable”.

Q: And the “nuclear AR localization” value [4]?
A: Its value is “not significantly altered”.

Q: What about the CYP2C19 induction [5] of the same compound?
A: The CYP2C19 induction was “moderate”.

Q: And the “nuclear AR localization” value [6]?
A: The value was “significantly impaired”.

Q: And the CYP2C9 induction [7]?
A: The CYP2C9 induction was “moderate”.

Q: What about the “effect on expression of AR target genes KLK3, NKX3-1 and SLC45A3” value ([8]; 10 μM, 10% FCS, FIG. 2c) of the same compound?
A: Its value is “blunted effects”.

Q: And the KLK3 expression ([8]; media stripped of androgens (10% CSS), alone or with agonist)?
A: Its KLK3 expression is “significantly enhanced KLK3 expression”.

Q: And the “expression of E2F1 target genes DHFR and TK1” value [9]?
A: The value was “suppressed expression”.

Q: What about the “incidence of most common adverse drug reactions (asthenia/fatigue, back pain, diarrhea, arthralgia, hot flush etc.)” value [10] of the same compound?
A: Its value is ≥ 5%.

Q: What about the “AR pathway activity upon treatment” value [11] of the same compound?
A: The value was “insignificant change”.

Q: And the CYP3A4 induction [12]?
A: The CYP3A4 induction was “strong”.

Q: Which “growth sensitivity compared with bicalutamide” value [13] does the source give for `CC(=O)c1c(C)c2cnc(Nc3ccc(N4CCNCC4)cn3)nc2n(C2CCCC2)c1=O` [PD0332991] here?
A: The value was “as sensitive”.

Q: And the “growth sensitivity compared with bicalutamide” value [14]?
A: The value was “as sensitive”.

Q: Which results are given for `CN(C)C(=O)c1cc2cnc(Nc3ccc(N4CCNCC4)cn3)nc2n1C1CCCC1` [LEE011, 7-Cyclopentyl-2-(5-piperazin-1-yl-pyridin-2-ylamino)-7H-pyrrolo[2,3-d]pyrimidine-6-carboxylic acid dimethylamide]?
A: growth sensitivity compared with bicalutamide [13]: as sensitive; growth sensitivity compared with bicalutamide [14]: as sensitive

Q: Which IC50 ([13]; Homo sapiens, LNCaP, read-out: aggregate IC50, growth inhibition) does the source give for `CC(O)(CS(=O)(=O)c1ccc(F)cc1)C(=O)Nc1ccc(C#N)c(C(F)(F)F)c1` (stereo not drawn) [bicalutamide, N-[4-cyano-3-(trifluoromethyl)phenyl]-3-[(4-fluorophenyl)sulfonyl]-2-hydroxy-2-methylpropanamide] here?
A: Its IC50 is 5 µM.

Q: And the “agonist/antagonist behaviour in AR reporter assay” value [15]?
A: Its value is “antagonist-to-agonist switch”.

Q: What about the IC50 [16] of the same compound?
A: Its IC50 is 1 µM.

Q: And the IC50 [17]?
A: Its IC50 is > 10 µM.

Q: What about the “growth under treatment on expression of F877L/T878A allele” value [14] of the same compound?
A: The value was “remained sensitive”.

Q: What about the “growth under treatment on expression of W742C/T878A allele” value [18] of the same compound?
A: The value was “significantly rescued growth”.

Q: What about the “agonist/antagonist behaviour on KLK3 expression” value [19] of the same compound?
A: The value was “antagonist-to-agonist switch”.

Q: With `CC(C)(O)C(=O)Nc1ccc([N+](=O)[O-])c(C(F)(F)F)c1` [hydroxyflutamide] as the compound, how does the “agonist/antagonist behaviour on KLK3 expression” value [20] read?
A: Its value is “antagonist-to-agonist switch”.
